Experimental data taken from article PMC8398805, “Chemical Characterization and Anti-HIV-1 Activity Assessment of Iridoids and Flavonols from Scrophularia trifoliata” (Molecules, 2021).
“And” between values parts separate entries of the source, which are not always exact repeats. Identical values can stand only once. Like-named read-outs stand apart in the source and are kept apart here. Marks after values point to notes of the source that are not given here.

Key:
[1] = target: T1, HIV-1 RT-associated RNase H activity (Human immunodeficiency virus type 1 group M subtype B, UniProt P04585); test: RNase H polymerase-independent cleavage assay; type: biochemical; settings: for IC50: compound concentration required to inhibit the HIV-1 RNase H activity by 50%; for remaining activity at 100 µM: read-out: HIV-1 RNase H percentage of control
T1 construct: The 1:1 ration between the p66/p51 subunits was also verified; made in house; host or cells: E. coli strain M15 with the p6HRT-prot vector
Description: HIV-1 RT group M subtype B. Heterodimeric RT was expressed and purified essentially as previously described. Briefly, protein was expressed in E. coli strain M15 containing the p6HRT-prot vector, induced with 1.7 mM isopropyl β-D-1-thiogalactopyranoside for 4 h. Protein purification was carried out with a BioLogic LP system (Biorad), using a combination of immobilized metal affinity and ion exchange chromatography. First, crude bacterial extract was clarified by centrifugation and loaded onto a Ni^2+-NTA-Sepharose column pre-equilibrated with a loading buffer (50 mM sodium phosphate buffer pH 7.8, containing 0.3 M NaCl, 10% glycerol, and 10 mM imidazole); RT was eluted with an imidazole gradient in wash buffer (0–0.5 M). Fractions were collected and protein purity was checked by SDS-PAGE and found to be higher than 90%. The 1:1 ration between the p66/p51 subunits was also verified. Enzyme-containing fractions were pooled and diluted 1:1 with 50 mM sodium phosphate buffer pH 7.0, containing 10% glycerol, and then loaded into a Hi-trap heparin HP GE (Healthcare Lifescience) using a loading buffer (50 mM sodium phosphate buffer pH 7.0, containing 10% glycerol and 150 mM NaCl). RT was eluted with Elute Buffer 2 (50 mM Sodium Phosphate pH 7.0, 10% glycerol, 1 M NaCl). Fractions were collected and protein was dialyzed and stored in a buffer containing 50 mM Tris-HCl pH 7.0, 25 mM NaCl, 1 mM EDTA, and 50% glycerol. Catalytic activities and protein concentrations were determined. Enzyme-containing fractions were pooled and aliquots were stored at −80 °C.
HIV RT-associated RNase H activity was measured as described (using the RNase H inhibitor RDS175911 as a control.) In a 100 µL reaction volume containing 50 mM Tris-HCl buffer with pH 7.8, 6 mM MgCl2, 1 mM dithiothreitol (DTT), 80 mM KCl, 0.25 µM hybrid RNA/DNA 5′-[…]-Fluorescin-3′ (HPLC, dry, QC: Mass Check) (available from Metabion (Planegg, Germany)) 5′-Dabcyl-[…]-3′ (HPLC, dry, QC: Mass Check), there were increasing concentrations of an inhibitor, whose dilution was made in water, and 20 ng of wt RT, according to a linear range of dose-response curve. The reaction mixture was incubated for 1 h at 37 °C, stopped by the addition of EDTA, and products were measured with a multilabel counter plate reader Victor 3 (Perkin Elmer model 1420-051 (Waltham, MA, USA)) equipped with filters for 490/528 nm (excitation/emission wavelength).

[2] = target: T2, HIV-1 IN in the presence of LEDGF/p75 (Human immunodeficiency virus type 1 group M subtype B, UniProt P04585); test: HTRF LEDGF-dependent integrase assay; type: biochemical; settings: for IC50: concentration required to inhibit IN catalytic activities, in the presence of LEDGF, by 50%; for remaining activity at 100 µM: in the presence of 100 µM compound concentration, read-out: HIV-1 IN LEDGF-dependent percentage of control
T2 construct: Recombinant 6xHis tagged IN protein was expressed and purified as described previously; 6xHis; made in house; host or cells: Escherichia coli BL21 (DE3) for IN
Description: Recombinant 6xHis tagged IN protein was expressed and purified as described previously. Briefly, IN was expressed in Escherichia coli strain BL21 (DE3). Initial purification was done using a Ni-Sepharose column with an imidazole gradient from 20 mM to 500 mM concentration in a 50 mM HEPES (pH 7.5) buffer containing 1 M NaCl, 7.5 mM CHAPS, and 2 mM β-mercaptoethanol. This was followed by a heparin column purification with a NaCl gradient from 0 to 1 M concentrations. His-LEDGF was purified by loading precipitate of cell lysate onto a heparin column and was eluted with an increasing NaCl gradient (200 mM to 1 M) in a 50 mM HEPES (pH 7.5) buffer containing 7.5 mM CHAPS and 2 mM β-mercaptoethanol. Peak fractions were pooled and loaded onto a Superdex 200 GL column and eluted in a buffer containing 50 mM HEPES (pH 7.5), 200 mM NaCl, and 2 mM β-mercaptoethanol. Fractions containing LEDGF were pooled and stored in 15% glycerol at −80 °C.
The HTRF assay allows measuring the inhibition of 3′-processing and strand-transfer IN reactions in the presence of recombinant LEDGF/p75 cellular cofactor [43]. Briefly, 50 nM IN was pre-incubated with an increasing concentration of compounds for 1 h at room temperature in reaction buffer containing 20 mM HEPES pH 7.5, 1 mM DTT, 1% Glycerol, 20 mM MgCl2, 0.05% Brij-35, and 0.1 mg/mL BSA. […] After the incubation, 4 nM of Europium-Streptavidin were added to the reaction mixture, and the HTRF signal was recorded using a Perkin Elmer Victor 3 plate reader using a 314 nm for the excitation wavelength and 668 and 620 nm for the wavelength of the acceptor and the donor substrate emission, respectively.

HIV-1 RT = settings: cited from earlier work
[3] = in the presence of 100 µM compound concentration

Compound: COC1C2C=COC(OC3OC(CO)C(O)C(O)C3O)C2C2(O)COC12 (stereo not shown) [Compound 5, trifoliatoside A]
- IC50 [1]: > 100 µM
- remaining activity at 100 µM [1, 3]: 93%
- HIV-1 IN inhibition (in words) [2]: able to inhibit IN, selectively
- IC50 [2]: 95.5 ± 4.5 µM

Compound: CC(=O)O[C@@]1(C)C[C@@H](O)C2C=CO[C@@H](O[C@@H]3O[C@H](CO)[C@@H](O)[C@H](O)[C@H]3O)C21 (stereo partly shown) [Compound 7, ajugoside]
- IC50 [1]: > 100 µM
- remaining activity at 100 µM [1, 3]: 100%
- HIV-1 IN inhibition (in words) [2]: able to inhibit IN, selectively
- IC50 [2]: 74 ± 3.5 µM

Compound: CCOC(=O)C(=O)CC(=O)/C=C/c1cccn1Cc1ccccc1Cl [RDS1759, reference compound]
- IC50 [1]: 7.3 ± 0.1 µM

Compound: kaempferol-3-O-rutinoside [Compound 10]
- HIV-1 RNase H percentage of control [1, 3]: >100 (100%) ^c

Compound: CO[C@H]1[C@@H]2C[C@@H]3OC[C@](O)([C@H]2[C@H](O[C@@H]2O[C@H](CO)[C@@H](O)[C@H](O)[C@H]2O)O3)[C@@H]1O [Compound 6, methylscutelloside]
- IC50 [1]: > 100 µM
- remaining activity at 100 µM [1, 3]: 100%
- IC50 [2]: 100 ± 0.5 µM

Compound: OCC1=C[C@@H](O)[C@@H]2C=CO[C@@H](O[C@@H]3O[C@H](CO)[C@@H](O)[C@H](O)[C@H]3O)[C@H]12 [Compound 2, aucubin]
- IC50 [1]: > 100 µM
- remaining activity at 100 µM [1, 3]: 100%
- IC50 [2]: > 100 µM
- remaining activity at 100 µM [2]: 100%

Compound: CO[C@H]1[C@@H]2C=CO[C@@H](O[C@@H]3O[C@H](CO)[C@@H](O)[C@H](O)[C@H]3O)[C@@H]2[C@@]2(CO)O[C@@H]12 [Compound 4, methylcatalpol]
- IC50 [1]: > 100 µM
- remaining activity at 100 µM [1, 3]: 100%
- IC50 [2]: > 100 µM
- remaining activity at 100 µM [2]: 80%

Compound: C[C@@H]1O[C@@H](OC[C@H]2O[C@@H](Oc3c(-c4ccc(O)c(O)c4)oc4cc(O)cc(O)c4c3=O)[C@H](O)[C@@H](O)[C@@H]2O)[C@H](O)[C@H](O)[C@H]1O [Compound 8, rutin]
- IC50 [1]: > 100 µM
- remaining activity at 100 µM [1, 3]: 100%
- HIV-1 IN inhibition (in words) [2]: submicromolar concentration
- IC50 [2]: 0.33 ± 0.04 µM

Compound: OC[C@H]1O[C@@H](O[C@@H]2OC=C[C@H]3[C@H](O)[C@@H]4O[C@]4(CO)[C@@H]23)[C@H](O)[C@@H](O)[C@@H]1O [Compound 1, catalpol]
- IC50 [1]: > 100 µM
- remaining activity at 100 µM [1, 3]: 100%
- IC50 [2]: > 100 µM
- remaining activity at 100 µM [2]: 100%

Compound: O=C(O)[C@H]1O[C@@H](Oc2cc3oc(-c4ccccc4)cc(=O)c3c(O)c2O)[C@H](O)[C@@H](O)[C@@H]1O [baicalin]
- HIV-1 RT IC50 (HIV-1 RT; baicalin from Scutellaria baicalensis): 0.2 mg/L

Compound: O=c1c(O)c(-c2ccc(O)cc2)oc2cc(O)cc(O)c12 [kaempferol]
- HIV-1 RT IC50 (HIV-1 RT; kaempferol from Securigera securidaca): 50 mg/L

Compound: C[C@]1(O)C[C@@H](O)[C@@H]2C=CO[C@@H](O[C@@H]3O[C@H](CO)[C@@H](O)[C@H](O)[C@H]3O)[C@@H]21 [Compound 3, ajugol]
- IC50 [1]: > 100 µM
- remaining activity at 100 µM [1, 3]: 100%
- IC50 [2]: > 100 µM
- remaining activity at 100 µM [2]: 77%

Compound: CC1OC(Oc2cc(O)c3c(=O)c(OC4OC(CO)C(O)C(O)C4O)c(-c4ccc(O)cc4)oc3c2)C(O)C(O)C1O (stereo not shown) [Compound 9, kaempferol-7-O-rhamnosyl-3-O-glucopyranoside]
- IC50 [1]: > 100 µM
- remaining activity at 100 µM [1, 3]: 100%
- HIV-1 IN inhibition (in words) [2]: submicromolar concentration
- IC50 [2]: 0.024 µM and 0.11 µM

Compound: C[C@]1(OC(=O)/C=C\c2ccccc2)C[C@@H](O)C2C=CO[C@@H](O[C@@H]3O[C@H](CO)[C@@H](O)[C@H](O)[C@H]3O)C21 (stereo partly shown) [Compound 13, trifoliatoside B]
- IC50 [1]: > 100 µM
- remaining activity at 100 µM [1, 3]: 92%
- IC50 [2]: 5.96 ± 0.1 µM

Compound: O=c1c(OC2O[C@H](CO)[C@@H](O)[C@H](O)[C@H]2O)c(-c2ccc(O)cc2)oc2cc(O)cc(O)c12 (stereo partly shown) [Compound 11, kaempferol-3-O-glucopyranoside]
- IC50 [1]: > 100 µM
- remaining activity at 100 µM [1, 3]: 100%
- HIV-1 IN inhibition (in words) [2]: submicromolar concentration
- IC50 [2]: 0.11 µM and 0.024 µM

Compound: C[C@]1(OC(=O)/C=C/c2ccccc2)C[C@@H](O)C2C=CO[C@@H](O[C@@H]3O[C@H](CO)[C@@H](O)[C@H](O)[C@H]3O)C21 (stereo partly shown) [Compound 12, laterioside]
- HIV-1 RNase H inhibition (in words) [1]: inactive
- IC50 [1]: > 100 µM
- remaining activity at 100 µM [1, 3]: 100%
- HIV-1 IN inhibition (in words) [2]: inactive
- IC50 [2]: > 100 µM
- remaining activity at 100 µM [2]: 80%
